From US4400199A, “Thiolcarbamate compounds and their use as herbicides” (priority 1981, dated 1983)
Converted amounts (≈) assume the structure as drawn. “And” between values parts separate entries of the source, which are not always exact repeats. Equal values may be shown once. Read-outs that look alike come from different tables or passages of the source.

Assays:
[1] = Experiment 3: acute toxicity to fish; format: in vivo, Black-carp fry; conditions: carp, water; for LC50 at 48 h: read-out: Median lethal concentration TLm (48hrs)
Protocol: With respect to the compounds according to the present invention and the comparative compounds (Compound 10, Compound 12 and Compound 13), there were conducted tests on acute toxicity to carps.
In 25-liter water tanks made of glass was charged 20 liters of water. 12 Black-carp fry were released to each of the water tanks and bred while feeding for 7 days. Then, the whole quantity of water in each of the tanks was replaced with fresh water, and feeding to the carps was stopped. After three days, a prescribed amount of 1 weight % solution of a test compound in acetone was added to water in the water tank.
The number of survival fish in each tank was counted after 24 hours, 48 hours and 96 hours, successively.
The TLm (median tolerance limit=lethal concentration 50%) was determined by the Doudorff's method (Sewage & Ind. Wastes 23 (1951) 1380-1397).

broad-leaf weeds = assay: Experiment 2: herbicidal effects against broad-leaf weeds (pot test, granules); format: in vivo; conditions: 25 days
carps = assay: Experiment 4: subacute toxicity to fish; format: in vivo, 2-year-old carps; conditions: for Average Hematocrit Value of survival fish / subacute toxicity to carps (in words) / survival of carps (in words) / symptoms of anemia in carps (in words): 0.2 ppm, 3 weeks
Protocol: (§1) With respect to the compounds according to the present invention and the comparative compounds listed in Table 4, there were conducted tests on subacute toxicity to 2-year-old carps having an average weight of 20 g.
(§2) Ten 2-year-old carps were released in each of 25-liter water tanks equipped with an air-blowing apparatus and acclimatized to the surroundings while feeding for 10 days. Water in each of the water tanks was continuously replaced with fresh water so that the residence time of water in the water tanks is 6 hours. Each test compound was added to a predetermined quantity of supply water to prepare a 0.2 ppm aqueous solution of each compound, and each of the aqueous solutions was continuously added to the water in the tank. After three weeks, the hematocrit values of all the survival carps were determined. The hematocrit value used herein is intended to mean a volume percentage of erythrocyte contained in the blood.

[2] = Experiment 4: subacute toxicity to fish; format: in vivo, 2-year-old carps; conditions: carp, water; 0.2 ppm; 3 weeks; read-out: Survival rate after 3 weeks
Protocol: as §1, §2

[3] = tested on: barnyard grass (Echinochloa crus-galli); assay: Experiment 1: herbicidal effects against barnyard grass (pot test, emulsifiable concentrate); format: in vivo
[4] = tested on: Hotarui (Scirpus juncoides); assay: Experiment 2: herbicidal effects against Hotarui (pot test, granules); format: in vivo; conditions: 25 days
barnyard grass = assay: Experiment 2: herbicidal effects against barnyard grass (pot test, granules); format: in vivo, Echinochloa crus-galli; conditions: 2.5 leaf-stage, 25 days
rice plants [5] = conditions: in vivo
[6] = tested on: Mizugayatsuri (Cyperus serotinus); assay: Experiment 2: herbicidal effects against Mizugayatsuri (pot test, granules); format: in vivo; conditions: 25 days
paddy field weeds = assay: Experiment 2: herbicidal effects against paddy field weeds, overall; format: in vivo; conditions: compared with Molinate (Compound 13)
rice plants [7] = assay: Experiment 2: phytotoxicity to rice plants (pot test, granules); conditions: for phytotoxicity rice plant: 25 days
rice plants [8] = conditions: in vivo; remark: listed apart in the source

SMILES | LC50 at 48 h [1] [µg/mL] | Herbicidal activity broad-leaf weeds (broad-leaf weeds; 150 g/10a.) | Herbicidal activity broad-leaf weeds (broad-leaf weeds; 300 g/10a.) | Herbicidal activity broad-leaf weeds (broad-leaf weeds; 600 g/10a.) | Average Hematocrit Value of survival fish (carps) [%] | subacute toxicity to carps (in words) (carps) | survival of carps (in words) (carps) | symptoms of anemia in carps (in words) (carps) | survival at 504 h [2] [%] | herbicidal activity (barnyard grass) ([3]; in vivo) | Herbicidal activity Hotarui (Scirpus juncoides) ([4]; 150 g/10a.) | Herbicidal activity Hotarui (Scirpus juncoides) ([4]; 300 g/10a.) | Herbicidal activity Hotarui (Scirpus juncoides) ([4]; 600 g/10a.) | herbicidal activity (barnyard grass) (barnyard grass; 150 g/10a.) | herbicidal activity (barnyard grass) (barnyard grass; 300 g/10a.) | herbicidal activity (barnyard grass) (barnyard grass; 600 g/10a.) | Herbicidal activity Mizugayatsuri (Cyperus serotinus) ([6]; 150 g/10a.) | Herbicidal activity Mizugayatsuri (Cyperus serotinus) ([6]; 300 g/10a.) | Herbicidal activity Mizugayatsuri (Cyperus serotinus) ([6]; 600 g/10a.) | herbicidal activity (in words) (paddy field weeds) | also measured
CCN(CC)C(=O)SCCCCl [Compound 10, reference compound] | > 20 | 5 (more than 90%) | 5 (more than 90%) | 5 (more than 90%) | 16 | high subacute toxicity to carps | extremely low | remarkable symptons of anemia | 80 | 5 (key: 5: more than 90%; 4: 70 to 89%; 3: 50 to 69%; 2: 30 to 49%; 10 to 29%; less than 10%) | 4 (70 to 89%) | 4 (70 to 89%) | 5 (more than 90%) | 5 (more than 90%) | 5 (more than 90%) | 5 (more than 90%) | 4 (70 to 89%) | 4 (70 to 89%) | 5 (more than 90%) | excellent herbicidal activities | LC50 at 96 h ([1]; 96 hrs, read-out: Median lethal concentration TLm (96hrs)): 18 µg/mL (≈ 85.8 µM); herbicidal activity (in words) ([3]; in vivo): sufficient herbicidal activities; phytotoxicity rice plant (rice plants [5]): 0 (key: 5: more than 90%; 4: 70 to 89%; 3: 50 to 69%; 2: 30 to 49%; 10 to 29%; less than 10%); harmful effects to rice plants (in words) (rice plants [7]): without harmful effects to rice plants; phytotoxicity rice plant (rice plants [7]; 150 g/10a.): 0 (less than 10%); phytotoxicity rice plant (rice plants [7]; 300 g/10a.): 0 (less than 10%); phytotoxicity rice plant (rice plants [7]; 600 g/10a.): 0 (less than 10%)
CC1CCCCN1C(=O)SCCCCl (stereo not drawn) [Compound 12, reference compound] | < 0.5 | 5 (more than 90%) | 5 (more than 90%) | 5 (more than 90%) | 19 | high subacute toxicity to carps | extremely low | remarkable symptons of anemia | 70 | – | 4 (70 to 89%) | 5 (more than 90%) | 5 (more than 90%) | 5 (more than 90%) | 5 (more than 90%) | 5 (more than 90%) | 4 (70 to 89%) | 4 (70 to 89%) | 5 (more than 90%) | excellent herbicidal activities | LC50 at 24 h ([1]; 24 hrs, read-out: Median lethal concentration TLm (24hrs)): 1 µg/mL (≈ 4.24 µM); harmful effects to rice plants (in words) (rice plants [8]): without harmful effects to rice plants; herbicidal activity (barnyard grass) ([3]; 1.5 leaf-stage of barnyard grass, 150 g/10a., 25 days): 5 (more than 90%); herbicidal activity (barnyard grass) ([3]; 1.5 leaf-stage of barnyard grass, 300 g/10a., 25 days): 5 (more than 90%); herbicidal activity (barnyard grass) ([3]; 1.5 leaf-stage of barnyard grass, 600 g/10a., 25 days): 5 (more than 90%); herbicidal activity (barnyard grass) ([3]; 3 leaf-stage of barnyard grass, 150 g/10a., 25 days): 5 (more than 90%); herbicidal activity (barnyard grass) ([3]; 3 leaf-stage of barnyard grass, 300 g/10a., 25 days): 5 (more than 90%); herbicidal activity (barnyard grass) ([3]; 3 leaf-stage of barnyard grass, 600 g/10a., 25 days): 5 (more than 90%); herbicidal activity (in words) ([3]; barnyard grass): sufficient herbicidal activities
CCSC(=O)N1CCCCCC1 [Compound 13, S-ethyl-hexahydro-1H-azepine-1-carbothioate, reference compound] | 34 (≈ 182 µM) | 1 (10 to 29%) | 2 (30 to 49%) | 3 (50 to 69%) | 25 | high subacute toxicity to carps | extremely low | remarkable symptons of anemia | 50 | 5 (key: 5: more than 90%; 4: 70 to 89%; 3: 50 to 69%; 2: 30 to 49%; 10 to 29%; less than 10%) and 4 (key: 5: more than 90%; 4: 70 to 89%; 3: 50 to 69%; 2: 30 to 49%; 10 to 29%; less than 10%) and 3 (key: 5: more than 90%; 4: 70 to 89%; 3: 50 to 69%; 2: 30 to 49%; 10 to 29%; less than 10%) | 0 (less than 10%) | 1 (10 to 29%) | 2 (30 to 49%) | 3 (50 to 69%) | 4 (70 to 89%) | 5 (more than 90%) | 0 (less than 10%) | 1 (10 to 29%) | 1 (10 to 29%) | – | subacute anemia symptoms in fish (in words) (carps; general statement): subacute anemia symptoms in fish; phytotoxicity rice plant (rice plants [7]; 150 g/10a.): 0 (less than 10%); phytotoxicity rice plant (rice plants [7]; 300 g/10a.): 0 (less than 10%); phytotoxicity rice plant (rice plants [7]; 600 g/10a.): 2 (30 to 49%)
